Results on one substance are retold here after patent US20010007657A1, “Compositions and methods for manipulating glial progenitor cells and treating neurological deficits” (priority 1997, published 2001).

For one assay, the system named is EGF receptor mRNA. The experiment in a line: In situ hybridization of EGF receptor mRNA after nigral 6-OHDA lesion and/or striatal TGFα infusion. Type of assay: in vivo, rat. An excerpt: Adult male Sprague-Dawley rats weighing 250-300 grams were obtained from Simonsen (Gilroy, Calif.) and assigned to one of five treatment groups: (1) striatal TGFα infusion, nigral 6-OHDA lesion (hereafter, “lesion”); (2) TGFα infusion, no lesion; (3) artificial cerebrospinal (aCSF) infusion, lesion; (4) aCSF infusion, no lesion; (5) no infusion, no lesion. Four to eight animals were used per experimental group. The animals were monitored after each surgical procedure until fully recovered and maintained at all other times in a temperature and humidity controlled vivarium.
Rats were anesthetized with 8 mg xylazine and 100 mg ketamine per kilogram body weight. […] The success and extent of 6-OHDA lesions were monitored by tyrosine hydroxylase (TH) mRNA in situ hybridization in the midbrain. TH is the rate-limiting enzyme in the dopamine synthetic pathway and is a common marker for dopamine-producing neurons. One animal with an incomplete lesion (retaining significant numbers of nigral TH-IR cells) was excluded from the study and is not included in the total number of animals.
Osmotic minipumps (model 2002, Alzet, Inc.) were implanted four to five weeks post-lesion. […] The minipump itself was placed subcutaneously in the interscapular region.
At the end of the infusion period, animals were sacrificed by decapitation. Their brains were quickly removed, frozen in isopentane at −20° C., and stored at −70° C. Coronal cryostat sections were cut at 20 μm and thaw-adhered to Vectabond™ (Vector Labs, Inc.) coated slides in ordered anterior-to-posterior rows. The sections were postfixed with 4% paraformaldehyde in 0.1 M phosphate buffer (pH 7.4) for one hour, rinsed in phosphate buffer and air dried. Sections were stored with desiccant at −20° C. until processed.
TGFα mRNA probes were generated from a 550 nucleotide XbaI/BamHI cDNA fragment from the 5′ end of rat TGFα subcloned into pGEM 7Zf (Promega, Inc.). Antisense and sense probes were transcribed with SP6 and T7 polymerases, respectively. Rat EGF receptor mRNA probes were produced from a 718 base pair BamHI/SphI insert from the 5′ end of the gene in pGEM 7Zf. Probes for rat TH were created using the 1.2 kb BamHI/EcoRI fragment subcloned into pGEM 7Zf. Antisense subclones for EGF receptor and TH were transcribed with T7 polymerase. Sense subclones for EGF receptor and TH were transcribed with SP6 polymerase. All probes were radiolabeled by transcription in the presence of [^35S]UTP (NEN Research Products, Inc.).
In situ nucleic acid hybridization was performed according to the method described by Simmons et al. 1989, supra). Parallel sections from experimental and control animals were hybridized overnight at 65° C. with sense or antisense probes at a concentration of 10^7 cpm/ml.

Assay [1] deals with neural precursor cells of the subependymal zone. The experiment in a line: Periventricular cellular expansion and striatal ridge formation (thionin, silver staining, immunohistochemistry). The assay is classed as in vivo, rat. To be noted: three months after the TGFα infusion pump was removed.

“Also recorded” adds a separate entry of the source.

With “TGFα: transforming growth factor alpha polypeptide, EGF-family growth factor that binds the EGF receptor; infused into rat brain”, the “rats with ridge of dense EGF receptor mRNA hybridization in ipsilateral striatum” value is “one of six” in the assay on EGF receptor mRNA (TGFα infusion/nonlesion group) and “five of the six” in the assay on EGF receptor mRNA (combined TGFα infusion/6-OHDA lesion group). The “EGF receptor mRNA hybridization in the ipsilateral subependymal region” value in the assay with EGF receptor mRNA (striatal TGFα infusion two weeks, lesioned and unlesioned) is recorded as “dramatically increased; also recorded: approximately doubled”. Further, the “persistence of the ridge in the striatum” value in assay [1] is recorded as “still prominent”.
